The results in this text go back to patent US9226928B2, “Spirocyclic isoxazoline parasiticidal combinations” (Zoetis Services LLC, priority 2012, dated 2016).

The structures appear in SMILES notation.

The test system of the experiment is Haemonchus contortus L3 resistant strain. As to the kind of experiment: In vitro motility assay, H. contortus L3 resistant strain. The experiment is classed as cell-based. Conditions: 96 hours; for H. contortus L3 resistant MED: minimum efficacious dose, visual motility assessment; for % Motility: vs untreated control, LemnaTec, moxidectin 0.3 μM, pyrantel 10 μM, Compound A 100 μM, alone or combined.

Regarding `CO/N=C1\C[C@]2(C[C@@H]3C[C@@H](C/C=C(\C)C[C@@H](C)/C=C/C=C4\CO[C@@H]5[C@H](O)C(C)=C[C@@H](C(=O)O3)[C@]45O)O2)O[C@H](/C(C)=C/C(C)C)[C@H]1C` [Moxidectin, moxidectin], the “H. contortus L3 resistant MED” value came to 1 µM and the “% Motility” value amounted to 64.3%.
For `CS(=O)(=O)CC(=O)N1CC2(C1)OCc1cc(C3=NO[C@@](c4cc(Cl)c(F)c(Cl)c4)(C(F)(F)F)C3)ccc12` [Compound A, (S)-1-(5′-(5-(3,5-dichloro-4-fluorophenyl)-5-(trifluoromethyl)-4,5-dihydroisoxazol-3-yl)-3′H-spiro[azetidine-3,1′-isobenzofuran]-1-yl)-2-(methylsulfonyl)ethanone], in that order: more than 100 µM and 69.0%.
For `CN1CCCN=C1/C=C/c1cccs1` [Pyrantel, pyrantel pamoate], in that order: 33 µM and 80.0%.
